Like-named read-outs stand apart in the source and are kept apart here.
What was measured:
ATR/CHK1/Cdc25C pathway = assay: Western blot of ATR-Chk1-Cdc25C cascade in HCT116 cells; assay type: cell-based, human
Description: To clarify the molecular mechanism responsible for inducing G2/M phase arrest in HCT116 following the treatment with the synthesised compounds, the signalling in the checkpoint pathway that regulates the G2/M transition was investigated. The mammalian cells respond to the DNA damage through 2 different kinase-signalling cascades (ATR-Chk1 and ATM-Chk2). First, the effect of the synthesised compounds on ATM and ATR phosphorylation was tested. […] Then, the phosphorylation of downstream effectors of ATM/ATR, phospho-Chk1-S269, and phospho-Chk2-T68 kinases was explored. […] It is well known that in vitro activation of Chk1 phosphorylates Cdc25C on serine-216. Therefore, the impact of the synthesised compounds on the Cdc25C phosphorylation at Ser-216 was investigated.
Western blotting analysis for HCT116 cells was performed according to the reported procedure in the literature[77–79] to determine the effects of CP hybrids; 4a, 4b, 4e, 4i, and 4j on the expression of polymerised tubulin, γH2AX, p-ATR, p-CHK1, and p-Cdc25C by using the appropriate antibody. See Supplementary Appendix A.

IGROV1 = assay type: cell-based; conditions: Homo sapiens, IGROV-1
HOP-62 = assay type: cell-based; conditions: Homo sapiens
M14 = assay type: cell-based; conditions: Homo sapiens
NCI-H226 = assay type: cell-based; conditions: Homo sapiens
U251 = assay type: cell-based; conditions: Homo sapiens
HS 578T = assay type: cell-based
A549/ATCC = assay type: cell-based; conditions: Homo sapiens
TK-10 = assay type: cell-based; conditions: Homo sapiens
UACC-257 = assay type: cell-based; conditions: Homo sapiens
OVCAR-8 = assay type: cell-based; conditions: Homo sapiens
NCI-H460 = assay type: cell-based; conditions: Homo sapiens
SF-295 = assay type: cell-based; conditions: Homo sapiens
UACC-62 = assay type: cell-based; conditions: Homo sapiens
COLO 205 = assay type: cell-based; conditions: Homo sapiens
UO-31 = assay type: cell-based; conditions: Homo sapiens
SN12C = assay type: cell-based; conditions: Homo sapiens
SK-OV-3 = assay type: cell-based; conditions: Homo sapiens
MDA-MB-468 = assay type: cell-based; conditions: Homo sapiens
KM12 = assay type: cell-based; conditions: Homo sapiens
HOP-92 = assay type: cell-based; conditions: Homo sapiens
SR = assay type: cell-based, human
SNB-19 = assay type: cell-based; conditions: Homo sapiens
MCF7 = assay type: cell-based, human
SF-268 = assay type: cell-based; conditions: Homo sapiens
EKVX = assay type: cell-based; conditions: Homo sapiens
K-562 = assay type: cell-based, human
MDA-MB-231/ATCC = assay type: cell-based
NCI-H522 = assay type: cell-based; conditions: Homo sapiens
SW-620 = assay type: cell-based; conditions: Homo sapiens
SK-MEL-5 = assay type: cell-based; conditions: Homo sapiens
CCRF-CEM = assay type: cell-based; conditions: Homo sapiens
NCI-H23 = assay type: cell-based; conditions: Homo sapiens
HCT-116 = assay type: cell-based, human
MDA-MB-435 = assay type: cell-based; conditions: Homo sapiens
786-0 = assay type: cell-based; conditions: Homo sapiens
[1] = read-out: LC50 (the source's name)

Structure (SMILES): O=C(/C=C/c1cccc(Cl)c1)c1ccc(-n2cc(CN3CCN(c4cc5c(cc4F)c(=O)c(C(=O)O)cn5C4CC4)CC3)nn2)cc1 [Compound 4b, (E)-7-(4-((1–(4-(3-(3-chlorophenyl)acryloyl)phenyl)-1H-1,2,3-triazol-4-yl)methyl)piperazin-1-yl)-1-cyclopropyl-6-fluoro-4-oxo-1,4-dihydroquinoline-3-carboxylic acid]
- expressions of p-ATR, p-CHK1, and p-Cdc25C, Western blot (ATR/CHK1/Cdc25C pathway): increased

Structure (SMILES): COc1cc(/C=C/C(=O)c2ccc(-n3cc(CN4CCN(c5cc6c(cc5F)c(=O)c(C(=O)O)cn6C5CC5)CC4)nn3)cc2)cc(OC)c1OC [Compound 4j, (E)-1-cyclopropyl-6-fluoro-4-oxo-7–(4-((1–(4-(3-(3,4,5-trimethoxyphenyl)acryloyl)phenyl)-1H-1,2,3-triazol-4-yl)methyl)piperazin-1-yl)-1,4-dihydroquinoline-3-carboxylic acid]
- GI50 (IGROV1): 1.64 µM
- GI50 (HOP-62): 2.49 µM
- CC50 (HOP-62; [1]): > 100 µM
- GI50 (M14): 2.49 µM
- CC50 (M14; [1]): > 100 µM
- GI50 (NCI-H226): 2.39 µM
- CC50 (NCI-H226; [1]): > 100 µM
- GI50 (U251; U-251): 1.48 µM
- CC50 (U251; U-251, read-out: LC50 (the source's name)): > 100 µM
- TGI (HS 578T; HS 578 T): >100 µM
- TGI (HS 578T; HS 578T): > 1.00E-4 Molar
- GI50 (HS 578T; Homo sapiens, HS 578T): 3.91 µM
- CC50 (HS 578T; Homo sapiens, HS 578T, read-out: LC50 (the source's name)): > 100 µM
- GI50 (A549/ATCC): 2.98 µM
- CC50 (A549/ATCC; [1]): > 100 µM
- GI50 (TK-10): 5.61 µM
- CC50 (TK-10; [1]): > 100 µM
- GI50 (UACC-257): 6.34 µM
- LC50 (UACC-257): > 100 µM
- GI50 (OVCAR-8): 4.03 µM
- CC50 (OVCAR-8; [1]): > 100 µM
- GI50 (NCI-H460): 2.4 µM
- CC50 (NCI-H460; [1]): > 100 µM
- GI50 (SF-295): 2.91 µM
- CC50 (SF-295; [1]): > 100 µM
- GI50 (UACC-62): 2.83 µM
- CC50 (UACC-62; [1]): 57.7 µM
- GI50 (COLO 205): 5.08 µM
- CC50 (COLO 205; [1]): > 100 µM
- GI50 (UO-31): 1.73 µM
- CC50 (UO-31; [1]): 30.5 µM
- GI50 (SN12C): 2.66 µM
- CC50 (SN12C; [1]): 46.2 µM
- GI50 (SK-OV-3): 7.09 µM
- CC50 (SK-OV-3; [1]): > 100 µM
- GI50 (MDA-MB-468): 1.96 µM
- CC50 (MDA-MB-468; [1]): > 100 µM
- expressions of p-ATR, p-CHK1, and p-Cdc25C, Western blot (ATR/CHK1/Cdc25C pathway): increased
- GI50 (KM12): 1.57 µM
- CC50 (KM12; [1]): > 100 µM
- GI50 (HOP-92): 11.7 µM
- CC50 (HOP-92; [1]): > 100 µM
- GI50 (SR): 0.43 µM
- GI50 (SR; Homo sapiens): 0.434 µM
- CC50 (SR; Homo sapiens, read-out: LC50 (the source's name)): > 100 µM
- GI50 (SNB-19): 4.52 µM
- CC50 (SNB-19; [1]): > 100 µM
- GI50 (MCF7; Homo sapiens, MCF7, MCF7): 0.396 µM
- CC50 (MCF7; Homo sapiens, MCF7, read-out: LC50 (the source's name)): > 100 µM
- GI50 (MCF7; MCF7): 0.39 µM
- GI50 (SF-268): 3.09 µM
- CC50 (SF-268; [1]): > 100 µM
- GI50 (EKVX): 4.24 µM
- CC50 (EKVX; [1]): > 100 µM
- GI50 (K-562): 0.97 µM
- GI50 (K-562; Homo sapiens, K562): 0.977 µM
- CC50 (K-562; Homo sapiens, K562, read-out: LC50 (the source's name)): > 100 µM
- GI50 (MDA-MB-231/ATCC; Homo sapiens, MDA-MB-231, MDA-MB231/ATCC): 3.2 µM
- CC50 (MDA-MB-231/ATCC; Homo sapiens, MDA-MB-231/ATCC, read-out: LC50 (the source's name)): > 100 µM
- TGI (MDA-MB-231/ATCC; MDA-MB231/ATCC): >100 µM
- TGI (MDA-MB-231/ATCC; MDA-MB-231/ATCC): > 1.00E-4 Molar
- GI50 (NCI-H522): 4.25 µM
- LC50 (NCI-H522): > 100 µM
- GI50 (SW-620): 1.37 µM
- CC50 (SW-620; [1]): > 100 µM
- GI50 (SK-MEL-5): 2.64 µM
- CC50 (SK-MEL-5; [1]): > 100 µM
- GI50 (CCRF-CEM): 2.63 µM
- CC50 (CCRF-CEM; [1]): > 100 µM
- GI50 (NCI-H23): 2.97 µM
- CC50 (NCI-H23; [1]): > 100 µM
- GI50 (HCT-116; HCT-116): 0.21 µM
- GI50 (HCT-116; Homo sapiens, HCT-116, HCT-116): 0.206 µM
- IC50 (HCT-116; Homo sapiens, HCT-116, HCT116, SRB assay): 0.2 µM
- GI50 (MDA-MB-435): 1.49 µM
- CC50 (MDA-MB-435; [1]): > 100 µM
- GI50 (786-0): 1.67 µM

Structure (SMILES): COc1ccc(/C=C/C(=O)c2ccc(-n3cc(CN4CCN(c5cc6c(cc5F)c(=O)c(C(=O)O)cn6C5CC5)CC4)nn3)cc2)cc1OC [Compound 4i, (E)-1-cyclopropyl-7-(4-((1-(4-(3–(3,4-dimethoxyphenyl)acryloyl)phenyl)-1H-1,2,3-triazol-4-yl)methyl)piperazin-1-yl)-6-fluoro-4-oxo-1,4-dihydroquinoline-3-carboxylic acid]
- expressions of p-ATR, p-CHK1, and p-Cdc25C, Western blot (ATR/CHK1/Cdc25C pathway): increased

Structure (SMILES): O=C(/C=C/c1ccc(F)cc1)c1ccc(-n2cc(CN3CCN(c4cc5c(cc4F)c(=O)c(C(=O)O)cn5C4CC4)CC3)nn2)cc1 [Compound 4e, (E)-1-cyclopropyl-6-fluoro-7–(4-((1–(4-(3-(4-fluorophenyl)acryloyl)phenyl)-1H-1,2,3-triazol-4-yl)methyl)piperazin-1-yl)-4-oxo-1,4-dihydroquinoline-3-carboxylic acid]
- expressions of p-ATR, p-CHK1, and p-Cdc25C, Western blot (ATR/CHK1/Cdc25C pathway): increased

Structure (SMILES): O=C(/C=C/c1ccccc1)c1ccc(-n2cc(CN3CCN(c4cc5c(cc4F)c(=O)c(C(=O)O)cn5C4CC4)CC3)nn2)cc1 [Compound 4a, (E) 7-(4-((1–(4-Cinnamoylphenyl)-1H-1,2,3-triazol-4-yl)methyl)piperazin-1-yl)-1-cyclopropyl-6-fluoro-4-oxo-1,4-dihydroquinoline-3-carboxylic acid]
- expressions of p-ATR, p-CHK1, and p-Cdc25C, Western blot (ATR/CHK1/Cdc25C pathway): increased

Reference: PMC9116245, “New 1,2,3-triazole linked ciprofloxacin-chalcones induce DNA damage by inhibiting human topoisomerase I& II and tubulin polymerization” (Journal of Enzyme Inhibition and Medicinal Chemistry, 2022)
